Source: ChEMBL document CHEMBL1201862, “PubChem BioAssay data set” (2004)
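Tested at 5 concentrations; 48 h exposure; 96-well plates; endpoints linearly interpolated, else capped at highest concentration. GI50: concentration for 50% inhibition of growth.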 Activity calls are given as the source filed them. No stated cut-off is given here; in the data, active = GI50 up to about 1.1 µM and inactive = higher.

Columns and labels:
Assay in all cases: DTP human tumour cell line panel, 48 h
A498 = tested on: A498
HCT-116 = tested on: HCT-116
HOP-62 = tested on: HOP-62
IGROV-1 = tested on: IGROV-1
MOLT-4 = tested on: MOLT-4
Malme-3M = tested on: Malme-3M
NCI-H23 = tested on: NCI-H23
NCI-H522 = tested on: NCI-H522
NCI/ADR-RES = tested on: NCI/ADR-RES
PC-3 = tested on: PC-3
SF-268 = tested on: SF-268
SK-MEL-5 = tested on: SK-MEL-5
SK-OV-3 = tested on: SK-OV-3
SR = tested on: SR
SW-620 = tested on: SW-620
UACC-257 = tested on: UACC-257
UO-31 = tested on: UO-31
EKVX = tested on: EKVX
RPMI-8226 = tested on: RPMI-8226
LOX IMVI = tested on: LOX IMVI

Row | Structure (SMILES) | GI50 (A498) | GI50 (HCT-116) | GI50 (HOP-62) | GI50 (IGROV-1) | GI50 (MOLT-4) | GI50 (Malme-3M) | GI50 (NCI-H23) | GI50 (NCI-H522) | GI50 (NCI/ADR-RES) | GI50 (PC-3) | GI50 (SF-268) | GI50 (SK-MEL-5) | GI50 (SK-OV-3) | GI50 (SR) | GI50 (SW-620) | GI50 (UACC-257) | GI50 (UO-31) | GI50 (EKVX) | GI50 (RPMI-8226) | GI50 (LOX IMVI)
1 | Cc1ncc([N+](=O)[O-])n1CCNC(=O)CCCCCn1ccnc1[N+](=O)[O-] | > 100 µM (inactive) | > 100 µM (inactive) | > 100 µM (inactive) | > 100 µM (inactive) | > 100 µM (inactive) | > 100 µM (inactive) | > 100 µM (inactive) | > 100 µM (inactive) | > 100 µM (inactive) | > 100 µM (inactive) | > 100 µM (inactive) | > 100 µM (inactive) | > 100 µM (inactive) | > 100 µM (inactive) | > 100 µM (inactive) | > 100 µM (inactive) | > 100 µM (inactive) |  |  | 
2 | CCCC(CCN)(CCN)[N+](=O)[O-] | > 100 µM (inactive) | > 100 µM (inactive) |  | > 100 µM (inactive) | > 100 µM (inactive) | > 100 µM (inactive) | > 100 µM (inactive) | > 100 µM (inactive) | > 100 µM (inactive) | > 100 µM (inactive) | > 100 µM (inactive) | > 100 µM (inactive) | > 100 µM (inactive) | > 100 µM (inactive) | > 100 µM (inactive) | > 100 µM (inactive) | > 100 µM (inactive) | > 100 µM (inactive) | > 100 µM (inactive) | 
3 | COc1cc(C(=O)/C=C/c2ccc(OCC#N)cc2)cc(OC)c1OC | 21.4 µM (inactive) | 13.9 µM (inactive) | 22.1 µM (inactive) | 38.4 µM (inactive) | 27 µM (inactive) | 17.4 µM (inactive) | 19.5 µM (inactive) | 17.3 µM (inactive) | 18 µM (inactive) | 18.7 µM (inactive) | 33.3 µM (inactive) | 13.2 µM (inactive) | 40.6 µM (inactive) | 23.6 µM (inactive) | 18.9 µM (inactive) | 34 µM (inactive) | 17.6 µM (inactive) | 50.8 µM (inactive) |  | 
4 | Cc1cccc(NC(=O)CC(=O)N2N=C(N3c4ccccc4Sc4ccccc43)CC2c2ccccc2)c1 (stereo not given) | > 100 µM (inactive) | > 100 µM (inactive) | > 100 µM (inactive) | > 100 µM (inactive) | > 100 µM (inactive) |  | > 100 µM (inactive) | > 100 µM (inactive) | > 100 µM (inactive) | > 100 µM (inactive) | > 100 µM (inactive) | > 100 µM (inactive) | > 100 µM (inactive) | > 100 µM (inactive) | > 100 µM (inactive) | > 100 µM (inactive) | > 100 µM (inactive) | > 100 µM (inactive) | > 100 µM (inactive) | 
5 | Nc1ccn(C2OC(COP(=O)(O)O)C(O)C2O)c(=O)n1 (stereo not given) | 26.8 µM (inactive) | 1.8 µM (inactive) | 0.951 µM (active) | 40.7 µM (inactive) | 0.0497 µM (active) |  | 8.83 µM (inactive) | 20.2 µM (inactive) | 6.38 µM (inactive) | > 100 µM (inactive) | 10.9 µM (inactive) | 16.6 µM (inactive) | 42.1 µM (inactive) | 3.39 µM (inactive) | > 56.9 µM (inactive) | > 63.4 µM (inactive) | 6.98 µM (inactive) | > 100 µM (inactive) | > 100 µM (inactive) | 3.08 µM (inactive)
6 | COc1cc2c(cc1OC)CCc1cc(OC)c(OC)cc1CC2 | > 100 µM (inactive) | > 100 µM (inactive) | > 100 µM (inactive) | > 100 µM (inactive) | > 100 µM (inactive) | > 100 µM (inactive) | > 100 µM (inactive) |  | > 100 µM (inactive) | > 100 µM (inactive) |  | > 100 µM (inactive) | > 100 µM (inactive) | > 100 µM (inactive) | > 100 µM (inactive) | > 100 µM (inactive) | > 100 µM (inactive) | > 100 µM (inactive) |  | > 100 µM (inactive)
7 | NC(=S)C1=C(N)Oc2c(c(=O)oc3ccccc23)C1c1ccc(Br)cc1 (stereo not given) | 63.2 µM (inactive) | > 100 µM (inactive) | > 100 µM (inactive) | > 100 µM (inactive) |  | > 100 µM (inactive) | > 100 µM (inactive) | 74.8 µM (inactive) | > 100 µM (inactive) | > 100 µM (inactive) | > 100 µM (inactive) | > 100 µM (inactive) | > 100 µM (inactive) | 1.61 µM (inactive) | > 100 µM (inactive) | > 100 µM (inactive) | > 100 µM (inactive) | > 100 µM (inactive) |  | > 100 µM (inactive)
8 | O=C1/C(=C/c2ccc(Cl)cc2)CSC/C1=C\c1ccc(Cl)cc1 |  | 1.76 µM (inactive) | 4.74 µM (inactive) | 1.82 µM (inactive) | 2.61 µM (inactive) | 10.3 µM (inactive) | 2.9 µM (inactive) | 4.99 µM (inactive) | 6.27 µM (inactive) | 3.52 µM (inactive) | 5.96 µM (inactive) | 3.45 µM (inactive) | 5.32 µM (inactive) | 2.69 µM (inactive) | 3.15 µM (inactive) | 1.99 µM (inactive) | 1.92 µM (inactive) | 22.9 µM (inactive) | 0.798 µM (active) | 1.91 µM (inactive)
9 | O=C1/C(=C/c2cccc(Br)c2)CSC/C1=C\c1cccc(Br)c1 |  | 1.78 µM (inactive) | 2.72 µM (inactive) | 3.04 µM (inactive) | 1.87 µM (inactive) | 1.92 µM (inactive) | 3.66 µM (inactive) | 1.87 µM (inactive) | 2.34 µM (inactive) | 2.5 µM (inactive) | 5.33 µM (inactive) | 1.87 µM (inactive) | 5.79 µM (inactive) | 2 µM (inactive) | 2.73 µM (inactive) | 2.38 µM (inactive) | 2.04 µM (inactive) | 5.68 µM (inactive) | 0.537 µM (active) | 1.57 µM (inactive)
10 | COc1ccc(CNC(=O)[C@H](Cc2ccc(O)cn2)NC(C)=O)cc1 | > 100 µM (inactive) | 89.3 µM (inactive) | > 100 µM (inactive) | > 100 µM (inactive) | > 100 µM (inactive) |  | > 100 µM (inactive) | > 100 µM (inactive) | > 100 µM (inactive) | > 100 µM (inactive) | > 100 µM (inactive) | > 100 µM (inactive) | > 100 µM (inactive) | > 100 µM (inactive) | > 100 µM (inactive) | > 100 µM (inactive) | > 100 µM (inactive) | 87.7 µM (inactive) | 64.9 µM (inactive) | > 100 µM (inactive)
11 | COc1cccc(CCNC(=O)Cc2ccccc2CCO)c1 | > 100 µM (inactive) | > 100 µM (inactive) | > 100 µM (inactive) | > 100 µM (inactive) | > 100 µM (inactive) |  | > 100 µM (inactive) | > 100 µM (inactive) | > 100 µM (inactive) | > 100 µM (inactive) | > 100 µM (inactive) | > 100 µM (inactive) | > 100 µM (inactive) | > 100 µM (inactive) | > 100 µM (inactive) | > 100 µM (inactive) | > 100 µM (inactive) | > 100 µM (inactive) | > 10 µM (inactive) | 
